The results in this text go back to US7872004B2, “6-(heterocyclyl-substituted benzyl)-4-oxoquinoline compound and use thereof as HIV integrase inhibitor” (Japan Tobacco Inc., priority 2006, dated 2011).

Usually IC50 stands for the point on the concentration scale where inhibition reaches its midpoint.

The experiment addresses T1, HIV integrase (Human immunodeficiency virus type 1 group M subtype B, UniProt P12497, F1332H).
T1 construct: HIV integrase full length gene; made in house; host or cells: Escherichia coli BL21(DE3)
Briefly: Determination of enzyme (HIV integrase) inhibitory activity. Type of experiment: biochemical, HIV (Human Immunodeficiency Virus (type 1)). Particulars: recombinant integrase protein (F185H), strand transfer plate assay, absorbance at 450 nm. An excerpt:
The following explains evaluation methods of the HIV integrase inhibitory activity of the compound of the present invention.
(i) Construction of Recombinant Integrase Gene Expression System
HIV integrase full length gene (J. Virol., 67, 425-437 (1993)) in which phenylalanine at codon 185 was substituted by histidine, was inserted between the restriction enzyme NdeI and XhoI sites of plasmid pET21a(+) (Novagen), whereby an integrase expression vector pET21a-IN-F185H was constructed.
(ii) Production and Purification of Integrase Protein
Escherichia coli recombinant BL21(DE3) transformed with plasmid pET21a-IN-F185H obtained in (i) was shake cultured at 30° C. in a liquid medium containing ampicillin. When the culture reached the logarithmic growth phase, isopropyl-β-D-thiogalactopyranoside was added to promote expression of integrase gene. The culture was continued for 3 hr to promote accumulation of the integrase protein. The recombinant E. coli was collected in pellets by centrifugal separation and preserved at −80° C.
The E. coli was suspended in Lysis buffer ([…] HEPES (pH 7.5), 5 mM DTT, 10 mM CHAPS, 10% glycerol) containing 1M sodium chloride and subjected to repeat pressurization and depressurization for rupture, and centrifugal separation at 4° C., 40,000×g, 60 min to recover a water-soluble fraction (supernatant). This was diluted 10-fold with Lysis buffer free of sodium chloride, mixed with SP-Sepharose (GE healthcare Bioscience) and stirred at 4° C. for 60 min to allow adsorption of integrase protein to the resin. The resin was washed with Lysis buffer containing 100 mM sodium chloride and the integrase protein was eluted with Lysis buffer containing 1M sodium chloride.
The eluted integrase protein solution was subjected to a Superdex 75 (GE healthcare Bioscience) column for gel filtration. The protein was eluted with Lysis buffer containing 1M sodium chloride.
The obtained fractions of the integrase protein were collected and preserved at −80° C.
(iii) Preparation of DNA Solution
The following DNA synthesized by Greiner or FASMAC was dissolved in TE buffer (10 mM Tris-hydrochloric acid (pH 8.0), 1 mM EDTA) and mixed with donor DNA, target DNA, and each complementary strand (+ and − strands) to 1 μM. The mixture was heated at 95° C. for 5 min, 80° C. for 10 min, 70° C. for 10 min, 60° C. for 10 min, 50° C. for 10 min and 40° C. for 10 min and kept at 25° C. to give a double stranded DNA, which was used for the test.
(iv) Determination of Enzyme (HIV Integrase) Inhibitory Activity
The donor DNA was diluted with TE buffer to 10 nM (or 5 nM), of which 50 μl was added to each well of streptavidin-coated microtiter plate (Roche) and allowed to adsorb at 37° C. for 60 min. The plate was washed with phosphate buffer (Dulbecco's PBS, Sanko Junyaku Co., Ltd.) containing 0.1% Tween 20 and phosphate buffer. Then, an enzyme reaction mixture (70 μl), a test substance (10 μl) diluted with the enzyme reaction mixture and 100 μg/ml (or 64 μg/ml (2 μM)) integrase protein (10 μl) were added to each well and reacted at 37° C. for 60 min.
Composition of the enzyme reaction mixture: 30 mM MOPS (3-morpholinopropanesulfonic acid), 5 mM magnesium chloride, 3 mM DTT (dithiothreitol), 0.1 mg/ml BSA (bovine serum albumin), 5% glycerol, 10% DMSO (dimethyl sulfoxide), 0.01% Tween 20.
Then, 50 nM (or 25 nM) target DNA (10 μl) was added, reacted at 37° C. for 10 min and washed with phosphate buffer containing 0.1% Tween 20 to stop the reaction.
Then, 100 mU/ml peroxidase labeled anti-digoxigenin antibody solution (Roche, 100 μl) was added, and the mixture was reacted at 37° C. for 60 min, followed by washing with phosphate buffer containing 0.1% Tween 20.
A peroxidase color solution (Bio Rad, 100 μl) was added and allowed to react at room temperature for 4 min (or 3 min). The color reaction was stopped by adding IN sulfuric acid (100 μl). The absorbance at 450 nm was measured. […]
Turning to `COc1cc2c(cc1Cc1cc(N3CCC(F)(F)C3)cc(Cl)c1F)c(=O)c(C(=O)O)cn2[C@H](CO)C(C)C` [Example 12, 6-[3-chloro-5-(3,3-difluoropyrrolidin-1-yl)-2-fluorobenzyl]-1-((S)-1-hydroxymethyl-2-methylpropyl)-7-methoxy-4-oxo-1,4-dihydroquinoline-3-carboxylic acid], the IC50 is under 10 nM.

As for `COc1cc2c(cc1Cc1cc(N3CCCC3=O)cc(Cl)c1F)c(=O)c(C(=O)O)cn2[C@H](CO)C(C)(C)C` [Example 45, 6-[3-chloro-2-fluoro-5-(2-oxopyrrolidin-1-yl)benzyl]-1-((S)-1-hydroxymethyl-2,2-dimethylpropyl)-7-methoxy-4-oxo-1,4-dihydroquinoline-3-carboxylic acid], the IC50 was under 10 nM. For the compound `CCOC[C@@H](CO)n1cc(C(=O)O)c(=O)c2cc(Cc3cc(N4CCOCC4)cc(Cl)c3F)c(OC)cc21` [Example 19, 6-[3-chloro-2-fluoro-5-(morpholin-4-yl)benzyl]-1-((R)-1-ethoxymethyl-2-hydroxyethyl)-7-methoxy-4-oxo-1,4-dihydroquinoline-3-carboxylic acid], the IC50 was under 10 nM.

For the compound `CC(C)(C)[C@@H](CO)n1cc(C(=O)O)c(=O)c2cc(Cc3cc(N4CCOCC4)cc(Cl)c3F)ccc21` [Example 53, 6-[3-chloro-2-fluoro-5-(morpholin-4-yl)benzyl]-1-((S)-1-hydroxymethyl-2,2-dimethylpropyl)-4-oxo-1,4-dihydroquinoline-3-carboxylic acid], the IC50 was under 10 nM. The figure for `COC[C@@H](CO)n1cc(C(=O)O)c(=O)c2cc(Cc3cc(N4CCOCC4)cc(Cl)c3F)c(OC)cc21` [Example 22, 6-[3-chloro-2-fluoro-5-(morpholin-4-yl)benzyl]-1-[(R)-2-hydroxy-1-(methoxymethyl)ethyl]-7-methoxy-4-oxo-1,4-dihydroquinoline-3-carboxylic acid] is under 10 nM; for `COc1cc2c(cc1Cc1cc(N3CCCCC3)cc(Cl)c1F)c(=O)c(C(=O)O)cn2[C@H](CO)C(C)C` [Example 6, 6-[3-chloro-2-fluoro-5-(piperidin-1-yl)benzyl]-1-((S)-1-hydroxymethyl-2-methylpropyl)-7-methoxy-4-oxo-1,4-dihydroquinoline-3-carboxylic acid] it is under 10 nM; for `CCc1cc2c(cc1Cc1cc(N3CCOCC3)cc(Cl)c1F)c(=O)c(C(=O)O)cn2[C@H](CO)C(C)(C)C` [Example 18, 6-[3-chloro-2-fluoro-5-(morpholin-4-yl)benzyl]-7-ethyl-1-((S)-1-hydroxymethyl-2,2-dimethylpropyl)-4-oxo-1,4-dihydroquinoline-3-carboxylic acid] it is under 10 nM. The figure for `CCc1cc2c(cc1Cc1cc(N3CCCC3=O)cc(Cl)c1F)c(=O)c(C(=O)O)cn2[C@H](CO)[C@@H](C)OC` [Example 41, 6-[3-chloro-2-fluoro-5-(2-oxopyrrolidin-1-yl)benzyl]-7-ethyl-1-((1R,2R)-1-hydroxymethyl-2-methoxypropyl)-4-oxo-1,4-dihydroquinoline-3-carboxylic acid] is 10 to 100 nM; for `CCc1cc2c(cc1Cc1cc(N3CCOCC3)cc(Cl)c1F)c(=O)c(C(=O)O)cn2[C@H](CO)CCOC` [Example 44, 6-[3-chloro-2-fluoro-5-(morpholin-4-yl)benzyl]-7-ethyl-1-((S)-1-hydroxymethyl-3-methoxypropyl)-4-oxo-1,4-dihydroquinoline-3-carboxylic acid] it is 10 to 100 nM; for `CC(C)(C)[C@@H](CO)n1cc(C(=O)O)c(=O)c2cc(Cc3cc(N4CCCC4=O)cc(Cl)c3F)ccc21` [Example 51, 6-[3-chloro-2-fluoro-5-(2-oxopyrrolidin-1-yl)benzyl]-1-((S)-1-hydroxymethyl-2,2-dimethylpropyl)-4-oxo-1,4-dihydroquinoline-3-carboxylic acid] it is under 10 nM.
